#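 Five compound concentrations were applied to cells in 96-well plates for 48 hours; endpoints were derived by simple linear interpolation of the resulting dose-response curve. GI50 = concentration required for 50% inhibition of growth.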 The source made the active and inactive calls. Rule as the data show it: active = GI50 up to about 1.1 µM and inactive = higher.
# Experiments:
# Assay in all cases: NCI anticancer screen, dose series, 48 h
# [1] = system: BT-549
# [2] = system: IGROV-1
# [3] = system: OVCAR-3
# [4] = system: NCI-H460
# [5] = system: SF-268
# [6] = system: SNB-75
# [7] = system: OVCAR-4
# [8] = system: A549
# [9] = system: MDA-N
# [10] = system: NCI/ADR-RES
# [11] = system: RXF 393
# [12] = system: SF-539
# [13] = system: KM12
# [14] = system: HT-29
# [15] = system: COLO 205
# [16] = system: RPMI-8226
# [17] = system: MOLT-4
# [18] = system: SN12C
# [19] = system: Hs-578T
# [20] = system: SK-MEL-2
# [21] = system: M14
# [22] = system: 786-0
# [23] = system: HOP-62
# [24] = system: SNB-19
# [25] = system: PC-3
# [26] = system: SF-295
# [27] = system: MCF7
# [28] = system: UACC-257
# [29] = system: SR
# [30] = system: CCRF-CEM
# [31] = system: NCI-H23
# [32] = system: SK-MEL-5
# [33] = system: OVCAR-8
# [34] = system: HCC 2998
# [35] = system: U-251
# [36] = system: LOX IMVI
# [37] = system: HCT-15
# [38] = system: HOP-92
# [39] = system: SK-MEL-28
# [40] = system: OVCAR-5
# [41] = system: TK-10
# [42] = system: EKVX
# [43] = system: K562
# [44] = system: T47D
# [45] = system: UO-31
# [46] = system: SK-OV-3
# [47] = system: SW-620
# [48] = system: HCT-116
# [49] = system: Malme-3M
# [50] = system: NCI-H522
# [51] = system: NCI-H226
# [52] = system: MDA-MB-231
# [53] = system: MDA-MB-435
# [54] = system: DU-145
# [55] = system: CAKI-1
# [56] = system: ACHN
# [57] = system: UACC-62
# [58] = system: HL-60
# [59] = system: A498
smiles,measurement,setting,value
CC(=O)N(CC(=O)C(=O)NNc1ccoc1)c1ccc(Cl)cc1,GI50,[1],> 100 µM (inactive)
same,GI50,[2],> 100 µM (inactive)
same,GI50,[3],> 100 µM (inactive)
same,GI50,[4],> 100 µM (inactive)
same,GI50,[5],> 100 µM (inactive)
same,GI50,[6],> 100 µM (inactive)
same,GI50,[7],> 100 µM (inactive)
same,GI50,[8],> 100 µM (inactive)
same,GI50,[9],> 100 µM (inactive)
same,GI50,[10],> 100 µM (inactive)
same,GI50,[11],> 100 µM (inactive)
same,GI50,[12],> 100 µM (inactive)
same,GI50,[13],> 100 µM (inactive)
same,GI50,[14],> 100 µM (inactive)
same,GI50,[15],> 100 µM (inactive)
same,GI50,[16],> 100 µM (inactive)
same,GI50,[17],> 100 µM (inactive)
same,GI50,[18],> 100 µM (inactive)
same,GI50,[19],> 100 µM (inactive)
same,GI50,[20],> 100 µM (inactive)
same,GI50,[21],> 100 µM (inactive)
same,GI50,[22],94 µM (inactive)
same,GI50,[23],> 100 µM (inactive)
same,GI50,[24],> 100 µM (inactive)
same,GI50,[25],> 100 µM (inactive)
same,GI50,[26],> 100 µM (inactive)
same,GI50,[27],50.5 µM (inactive)
same,GI50,[28],> 100 µM (inactive)
same,GI50,[29],79.4 µM (inactive)
same,GI50,[30],31.9 µM (inactive)
same,GI50,[31],> 100 µM (inactive)
same,GI50,[32],> 100 µM (inactive)
same,GI50,[33],> 100 µM (inactive)
same,GI50,[34],> 100 µM (inactive)
same,GI50,[35],> 100 µM (inactive)
same,GI50,[36],> 100 µM (inactive)
same,GI50,[37],50.5 µM
same,GI50,[38],> 100 µM (inactive)
same,GI50,[39],> 100 µM (inactive)
same,GI50,[40],> 100 µM (inactive)
same,GI50,[41],> 100 µM (inactive)
same,GI50,[42],> 100 µM (inactive)
same,GI50,[43],91.4 µM (inactive)
same,GI50,[44],> 100 µM (inactive)
same,GI50,[45],77.1 µM (inactive)
same,GI50,[46],> 100 µM (inactive)
same,GI50,[47],> 100 µM (inactive)
same,GI50,[48],> 100 µM (inactive)
same,GI50,[49],> 100 µM (inactive)
same,GI50,[50],> 100 µM (inactive)
same,GI50,[51],> 100 µM (inactive)
same,GI50,[52],> 100 µM (inactive)
same,GI50,[53],> 100 µM (inactive)
same,GI50,[54],87.3 µM (inactive)
same,GI50,[55],> 100 µM (inactive)
same,GI50,[56],37.8 µM (inactive)
COc1cc(/C=N/c2ccc(S(N)(=O)=O)cc2)cc(OC)c1,GI50,[1],> 50 µM (inactive)
same,GI50,[2],18.2 µM (inactive)
same,GI50,[3],> 50 µM (inactive)
same,GI50,[4],> 50 µM (inactive)
same,GI50,[5],> 50 µM (inactive)
same,GI50,[6],25.6 µM (inactive)
same,GI50,[7],> 50 µM (inactive)
same,GI50,[8],> 50 µM (inactive)
same,GI50,[9],26.5 µM (inactive)
same,GI50,[10],> 50 µM (inactive)
same,GI50,[11],> 50 µM (inactive)
same,GI50,[12],25.3 µM (inactive)
same,GI50,[13],30.1 µM (inactive)
same,GI50,[14],> 50 µM (inactive)
same,GI50,[15],> 50 µM (inactive)
same,GI50,[16],28 µM (inactive)
same,GI50,[17],36.9 µM (inactive)
same,GI50,[18],> 50 µM (inactive)
same,GI50,[19],> 50 µM (inactive)
same,GI50,[20],> 50 µM (inactive)
same,GI50,[21],> 50 µM (inactive)
same,GI50,[22],> 50 µM (inactive)
same,GI50,[23],> 50 µM (inactive)
same,GI50,[24],> 50 µM (inactive)
same,GI50,[25],> 50 µM (inactive)
same,GI50,[26],> 50 µM (inactive)
same,GI50,[27],22.3 µM (inactive)
same,GI50,[28],> 50 µM (inactive)
same,GI50,[29],16.4 µM (inactive)
same,GI50,[30],34.3 µM (inactive)
same,GI50,[31],> 50 µM (inactive)
same,GI50,[32],> 50 µM (inactive)
same,GI50,[33],> 50 µM (inactive)
same,GI50,[34],> 50 µM (inactive)
same,GI50,[35],> 50 µM (inactive)
same,GI50,[36],46.6 µM (inactive)
same,GI50,[37],29.6 µM
same,GI50,[38],> 50 µM (inactive)
same,GI50,[39],> 50 µM (inactive)
same,GI50,[40],> 50 µM (inactive)
same,GI50,[41],> 50 µM (inactive)
same,GI50,[57],> 50 µM (inactive)
same,GI50,[58],13.6 µM (inactive)
same,GI50,[42],> 50 µM (inactive)
same,GI50,[43],42.1 µM (inactive)
same,GI50,[59],> 50 µM (inactive)
same,GI50,[44],> 50 µM (inactive)
same,GI50,[45],> 50 µM (inactive)
same,GI50,[46],> 50 µM (inactive)
same,GI50,[48],19.8 µM (inactive)
same,GI50,[49],> 50 µM (inactive)
same,GI50,[51],> 50 µM (inactive)
same,GI50,[52],20.1 µM (inactive)
same,GI50,[53],14 µM (inactive)
same,GI50,[54],> 50 µM (inactive)
same,GI50,[55],> 50 µM (inactive)
same,GI50,[56],> 50 µM (inactive)
COC(=O)C1=C(O)C(C(=O)OC)[C@]2(O)[C@H](C(=O)OC)[C@H]1C[C@@H](c1ccc(F)cc1)[C@H]2C(=O)OC (stereo partly specified),GI50,[1],21.4 µM (inactive)
same,GI50,[2],18.8 µM (inactive)
same,GI50,[3],11.1 µM (inactive)
same,GI50,[4],17.4 µM (inactive)
same,GI50,[5],23.7 µM (inactive)
same,GI50,[6],18.1 µM (inactive)
same,GI50,[7],22.4 µM (inactive)
same,GI50,[8],19.3 µM (inactive)
same,GI50,[9],3.87 µM (inactive)
same,GI50,[10],4.98 µM (inactive)
same,GI50,[11],11.2 µM (inactive)
same,GI50,[12],18.2 µM (inactive)
same,GI50,[13],18.1 µM (inactive)
same,GI50,[14],16.6 µM (inactive)
same,GI50,[15],14.7 µM (inactive)
same,GI50,[16],16.2 µM (inactive)
same,GI50,[17],15.2 µM (inactive)
same,GI50,[18],3.63 µM (inactive)
same,GI50,[19],21.7 µM (inactive)
same,GI50,[20],4.35 µM (inactive)
same,GI50,[21],10.4 µM (inactive)
same,GI50,[22],14.9 µM (inactive)
same,GI50,[23],22.6 µM (inactive)
same,GI50,[24],19.1 µM (inactive)
same,GI50,[25],12.2 µM (inactive)
same,GI50,[26],14.2 µM (inactive)
same,GI50,[27],5.35 µM (inactive)
same,GI50,[28],11.9 µM (inactive)
same,GI50,[29],10.9 µM (inactive)
same,GI50,[30],6.85 µM (inactive)
same,GI50,[31],14 µM (inactive)
same,GI50,[32],12.3 µM (inactive)
same,GI50,[33],20.9 µM (inactive)
same,GI50,[34],14.6 µM (inactive)
same,GI50,[35],15.4 µM (inactive)
same,GI50,[36],18.4 µM (inactive)
same,GI50,[37],12.3 µM
same,GI50,[38],27.3 µM (inactive)
same,GI50,[39],14.2 µM (inactive)
same,GI50,[40],17.7 µM (inactive)
same,GI50,[41],21.9 µM (inactive)
same,GI50,[57],13.5 µM (inactive)
same,GI50,[58],2.92 µM (inactive)
same,GI50,[42],17.3 µM (inactive)
same,GI50,[43],9.23 µM (inactive)
same,GI50,[59],16.8 µM (inactive)
same,GI50,[44],22.6 µM (inactive)
same,GI50,[45],14.1 µM (inactive)
same,GI50,[46],22.6 µM (inactive)
same,GI50,[47],13.2 µM (inactive)
same,GI50,[48],7.19 µM (inactive)
same,GI50,[49],12.9 µM (inactive)
same,GI50,[51],17.3 µM (inactive)
same,GI50,[52],30.1 µM (inactive)
same,GI50,[53],5.43 µM (inactive)
same,GI50,[54],14.8 µM (inactive)
same,GI50,[55],19.1 µM (inactive)
same,GI50,[56],15.5 µM (inactive)

# Source: ChEMBL document CHEMBL1201862, “PubChem BioAssay data set” (2004)
